Measurements: paper PMC7316745, “A small-molecule ARTS mimetic promotes apoptosis through degradation of both XIAP and Bcl-2” (Cell Death & Disease, 2020)

How the values were obtained:
[1] = target: T1, XIAP (Homo sapiens, UniProt P98170); assay: microscale thermophoresis (MST); format: binding
T1 construct: recombinant untagged XIAP, NT650-labelled (maleimide coupling)

[2] = test system: HEK293; assay: cells; design: Sulforhodamine B growth/viability assay on tumour cell line panel (Oncolead), six dilutions, compound replenished daily; settings: Homo sapiens, HEK293; 72 h, SRB; read-out: Supplementary table 1 / A4 IC50
Protocol: (§1) Screening of 94 different cancer cell lines spanning over 18 human tissues was performed by Oncolead Ltd. The company used an identical platform to the one NIH, NCI-60 uses to assess the effect of a compound on the viability of a variety of tumour cell lines. Briefly, cells are treated with a series of six dilutions of a compound for 72 h (compound is replenished daily). After 72 h, cells were fixed (living cells are attached to the plate), and then washed to remove dead and dying cells. Cells were then stained with a dye (sulforhodamine B) that dyes all proteins purple, which is measured by a plate reader and provides quantification of living cells. The number of cells treated with the compound is compared to the number of cells treated with DMSO (solvent). The inhibitory concentration (IC) value was calculated by taking the number of cells after 72 h of treatment and dividing by the number of cells after 72 h treatment with DMSO (C). IC50 is the value calculated from the dose–response plot, which is the concentration of the compound that has 50% decrease of the IC. To determine the specificity of A4 killing for various types of cancer, a panel of 94 cancer cell lines representing 18 different types of cancers were tested. The IC50 values for each cell line treated with A4 were determined (Oncolead Ltd). The cancers that were most sensitive to A4 killing were of haematological origin (8/12 different cell lines), melanoma (3/5 lines), pancreatic cancer and 4/7 lung cancers. Importantly, peripheral blood mononuclear cells (PBMCs), representing healthy normal cells, and 184A1, a normal human epithelium mammary gland cell, were not killed by A4 (Fig. 5a, Supplementary Table 1 and Fig. 5cI, respectively). To explore whether the levels of XIAP and Bcl-2 protein affect the sensitivity to A4, we analysed the available web proteomes and looked for a correlation. While data regarding XIAP expression levels were found in most proteomes (28 of 32 proteomes), Bcl-2 expression data were only detected in few (9 of 32 proteomes) (data not shown). A significant correlation was found between XIAP expression levels (ratio to actin, GAPDH) and the sensitivity to A4 (IC50, µM) in breast, ovary and kidney carcinomas (Fig. 5bI, II and Supplementary Tables 1 and 2). Cancer cell lines with high levels of XIAP were particularly sensitive to the killing effect of A4 (Fig. 5bI, II and Supplementary Tables 1 and 2). […] To further confirm that A4 functions as a specific antagonist for XIAP, we performed a SKOV-3 rescue assay. SKOV-3 ovarian carcinoma cells are highly sensitive to SMs[49]. SMs act by antagonizing cIAPs, an event that leads to cell death when complemented by an XIAP-dependent increase in TNFα production[47],[48],[58]. In SKOV-3 cells, XIAP is required for TNFα production, which recruits cIAP into a complex that activates caspase-8 and apoptosis through the extrinsic pathway (Fig. 6a)[49]. Knockdown of XIAP in SKOV-3 cells bestowed resistance to SMs[49]. We utilized this assay to investigate the specificity of A4 for XIAP compared to cIAPs. Treatment with 1 μM of the SM Birinapant for […]

[3] = test system: UO31; assay: cells; design: Sulforhodamine B growth/viability assay on tumour cell line panel (Oncolead), six dilutions, compound replenished daily; settings: Homo sapiens, UO-31; 72 h, SRB; read-out: Supplementary table 1 / A4 IC50
Protocol: as §1

[4] = test system: ACHN; assay: cells; design: Sulforhodamine B growth/viability assay on tumour cell line panel (Oncolead), six dilutions, compound replenished daily; settings: Homo sapiens, ACHN; 72 h, SRB; read-out: Supplementary table 1 / A4 IC50
Protocol: as §1

[5] = test system: SKBR3; assay: cells; design: Sulforhodamine B growth/viability assay on tumour cell line panel (Oncolead), six dilutions, compound replenished daily; settings: Homo sapiens, SK-BR-3; 72 h, SRB; read-out: Supplementary table 1 / A4 IC50
Protocol: as §1

[6] = test system: MDAMB436; assay: cells; design: Sulforhodamine B growth/viability assay on tumour cell line panel (Oncolead), six dilutions, compound replenished daily; settings: Homo sapiens, MDA-MB-436; 72 h, SRB; read-out: Supplementary table 1 / A4 IC50
Protocol: as §1

[7] = test system: HS578T; assay: cells; design: Sulforhodamine B growth/viability assay on tumour cell line panel (Oncolead), six dilutions, compound replenished daily; settings: Homo sapiens, Hs-578T; 72 h, SRB; read-out: Supplementary table 1 / A4 IC50
Protocol: as §1

[8] = test system: OVCAR3; assay: cells; design: Sulforhodamine B growth/viability assay on tumour cell line panel (Oncolead), six dilutions, compound replenished daily; settings: Homo sapiens, OVCAR-3; 72 h, SRB; read-out: Supplementary table 1 / A4 IC50
Protocol: as §1

[9] = test system: HCT116; assay: cells; design: Sulforhodamine B growth/viability assay on tumour cell line panel (Oncolead), six dilutions, compound replenished daily; settings: Homo sapiens, HCT-116; 72 h, SRB; read-out: Supplementary table 1 / A4 IC50
Protocol: as §1

[10] = test system: HT-29; assay: cells; design: Sulforhodamine B growth/viability assay on tumour cell line panel (Oncolead), six dilutions, compound replenished daily; settings: Homo sapiens, HT-29; 72 h, SRB; read-out: Supplementary table 1 / A4 IC50
Protocol: as §1

[11] = test system: MCF-7; assay: cells; design: Sulforhodamine B growth/viability assay on tumour cell line panel (Oncolead), six dilutions, compound replenished daily; settings: Homo sapiens, MCF7; 72 h, SRB; read-out: Supplementary table 1 / A4 IC50
Protocol: as §1

[12] = test system: HCT15; assay: cells; design: Sulforhodamine B growth/viability assay on tumour cell line panel (Oncolead), six dilutions, compound replenished daily; settings: Homo sapiens, HCT-15; 72 h, SRB; read-out: Supplementary table 1 / A4 IC50
Protocol: as §1

[13] = test system: MDAMB231; assay: cells; design: Sulforhodamine B growth/viability assay on tumour cell line panel (Oncolead), six dilutions, compound replenished daily; settings: Homo sapiens, MDA-MB-231; 72 h, SRB; read-out: Supplementary table 1 / A4 IC50
Protocol: as §1

[14] = test system: SKOV-3; assay: cells; design: Sulforhodamine B growth/viability assay on tumour cell line panel (Oncolead), six dilutions, compound replenished daily; settings: Homo sapiens, SK-OV-3; 72 h, SRB; read-out: Supplementary table 1 / A4 IC50
Protocol: as §1

[15] = test system: COLO205; assay: cells; design: Sulforhodamine B growth/viability assay on tumour cell line panel (Oncolead), six dilutions, compound replenished daily; settings: Homo sapiens, COLO 205; 72 h, SRB; read-out: Supplementary table 1 / A4 IC50
Protocol: as §1

[16] = test system: Caco-2; assay: cells; design: Sulforhodamine B growth/viability assay on tumour cell line panel (Oncolead), six dilutions, compound replenished daily; settings: Homo sapiens, Caco-2; 72 h, SRB; read-out: Supplementary table 1 / A4 IC50
Protocol: as §1

[17] = test system: MDAMB468; assay: cells; design: Sulforhodamine B growth/viability assay on tumour cell line panel (Oncolead), six dilutions, compound replenished daily; settings: Homo sapiens, MDA-MB-468; 72 h, SRB; read-out: Supplementary table 1 / A4 IC50
Protocol: as §1

[18] = test system: OVCAR4; assay: cells; design: Sulforhodamine B growth/viability assay on tumour cell line panel (Oncolead), six dilutions, compound replenished daily; settings: Homo sapiens, OVCAR-4; 72 h, SRB; read-out: Supplementary table 1 / A4 IC50
Protocol: as §1

[19] = test system: 786-0; assay: cells; design: Sulforhodamine B growth/viability assay on tumour cell line panel (Oncolead), six dilutions, compound replenished daily; settings: Homo sapiens, 786-0; 72 h, SRB; read-out: Supplementary table 1 / A4 IC50
Protocol: as §1

[20] = test system: IGROV-1; assay: cells; design: Sulforhodamine B growth/viability assay on tumour cell line panel (Oncolead), six dilutions, compound replenished daily; settings: Homo sapiens, IGROV-1; 72 h, SRB; read-out: Supplementary table 1 / A4 IC50
Protocol: as §1

[21] = test system: COLO678; assay: cells; design: Sulforhodamine B growth/viability assay on tumour cell line panel (Oncolead), six dilutions, compound replenished daily; settings: Homo sapiens, COLO-678; 72 h, SRB; read-out: Supplementary table 1 / A4 IC50
Protocol: as §1

[22] = test system: DLD1; assay: cells; design: Sulforhodamine B growth/viability assay on tumour cell line panel (Oncolead), six dilutions, compound replenished daily; settings: Homo sapiens, DLD-1; 72 h, SRB; read-out: Supplementary table 1 / A4 IC50
Protocol: as §1

[23] = test system: SW620; assay: cells; design: Sulforhodamine B growth/viability assay on tumour cell line panel (Oncolead), six dilutions, compound replenished daily; settings: Homo sapiens, SW-620; 72 h, SRB; read-out: Supplementary table 1 / A4 IC50
Protocol: as §1

[24] = test system: Caki1; assay: cells; design: Sulforhodamine B growth/viability assay on tumour cell line panel (Oncolead), six dilutions, compound replenished daily; settings: Homo sapiens, CAKI-1; 72 h, SRB; read-out: Supplementary table 1 / A4 IC50
Protocol: as §1

[25] = test system: LOVO; assay: cells; design: Sulforhodamine B growth/viability assay on tumour cell line panel (Oncolead), six dilutions, compound replenished daily; settings: Homo sapiens, LoVo; 72 h, SRB; read-out: Supplementary table 1 / A4 IC50
Protocol: as §1

T1 sequence (P98170 whole entry): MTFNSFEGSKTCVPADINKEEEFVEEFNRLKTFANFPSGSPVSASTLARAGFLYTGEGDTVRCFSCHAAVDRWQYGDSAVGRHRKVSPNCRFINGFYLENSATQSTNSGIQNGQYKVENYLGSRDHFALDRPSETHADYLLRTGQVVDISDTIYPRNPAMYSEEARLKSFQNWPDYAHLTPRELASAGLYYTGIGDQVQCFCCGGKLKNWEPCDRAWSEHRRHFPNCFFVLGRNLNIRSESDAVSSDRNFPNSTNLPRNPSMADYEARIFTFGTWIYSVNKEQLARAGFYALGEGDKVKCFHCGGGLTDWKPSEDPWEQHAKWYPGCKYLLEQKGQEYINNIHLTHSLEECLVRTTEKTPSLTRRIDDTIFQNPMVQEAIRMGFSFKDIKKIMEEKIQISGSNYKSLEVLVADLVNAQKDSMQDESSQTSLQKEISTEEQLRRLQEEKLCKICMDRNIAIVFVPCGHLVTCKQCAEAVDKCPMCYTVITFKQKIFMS

- Kd [1]: 0.348 ± 0.228 µM
- IC50 [4]: 5.99 µM
- IC50 [5]: 7.98 µM
- IC50 [6]: 7.16 µM
- IC50 [8]: 8.4 µM
- IC50 [9]: 11.2 µM
- IC50 [10]: 1.84 µM
- IC50 [11]: 4.61 µM
- IC50 [12]: 5.03 µM
- IC50 [13]: 10.1 µM
- IC50 [14]: 13.6 µM
- IC50 [15]: 7.38 µM
- IC50 [16]: 8.14 µM
- IC50 [17]: 6.22 µM
- IC50 [18]: 9.99 µM
- IC50 [19]: 6.3 µM
- IC50 [21]: 14.4 µM
- IC50 [22]: 8.24 µM
- IC50 [23]: 10.4 µM
- IC50 [25]: 5.96 µM
SMILES: COC(=O)c1[nH]c2ccc(Cl)cc2c1NC(=O)CN1CCN(Cc2ccccc2)CC1 [A4, methyl 5-chloro-3-[[2-[4-(phenylmethyl)piperazin-1-yl]acetyl]amino]-1H-indole-2-carboxylat]
- IC50 [2]: 2.8 µM
- IC50 [3]: 6.48 µM
- IC50 [7]: 9.56 µM
- IC50 [20]: 8.08 µM
- IC50 [24]: 8.14 µM
